Experimental findings from ChEMBL document CHEMBL1201862, “PubChem BioAssay data set” (2004) are described below.

Common to all, as to assay type: functional
One assay concerns the target Aurora kinase B (Homo sapiens, UniProt Q96GD4).
Assay [1] has as its target Dual specificity protein kinase CLK4 (Homo sapiens, UniProt Q9HAZ1).
Assay [2] has as its target Rho-associated protein kinase 1 (Homo sapiens, UniProt Q13464).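 Also: measured within a broad kinome-wide panel profiling many kinases.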
Assay [3] addresses Dual specificity mitogen-activated protein kinase kinase 1 (Homo sapiens, UniProt Q02750). As to the kind of experiment: Navigating the Kinome. Panel member name: MAP2K1.
In assay [4] the target is cAMP-dependent protein kinase catalytic subunit alpha (Homo sapiens, UniProt P17612).
Assay [5] has as its target Tyrosine-protein kinase JAK2 (Homo sapiens, UniProt O60674).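 Also: JAK2 tested as one member of a kinase panel.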
In assay [6] the target is Tyrosine-protein kinase ABL1 (Homo sapiens, UniProt P00519).
Chain of Tyrosine-protein kinase ABL1 (P00519 whole entry): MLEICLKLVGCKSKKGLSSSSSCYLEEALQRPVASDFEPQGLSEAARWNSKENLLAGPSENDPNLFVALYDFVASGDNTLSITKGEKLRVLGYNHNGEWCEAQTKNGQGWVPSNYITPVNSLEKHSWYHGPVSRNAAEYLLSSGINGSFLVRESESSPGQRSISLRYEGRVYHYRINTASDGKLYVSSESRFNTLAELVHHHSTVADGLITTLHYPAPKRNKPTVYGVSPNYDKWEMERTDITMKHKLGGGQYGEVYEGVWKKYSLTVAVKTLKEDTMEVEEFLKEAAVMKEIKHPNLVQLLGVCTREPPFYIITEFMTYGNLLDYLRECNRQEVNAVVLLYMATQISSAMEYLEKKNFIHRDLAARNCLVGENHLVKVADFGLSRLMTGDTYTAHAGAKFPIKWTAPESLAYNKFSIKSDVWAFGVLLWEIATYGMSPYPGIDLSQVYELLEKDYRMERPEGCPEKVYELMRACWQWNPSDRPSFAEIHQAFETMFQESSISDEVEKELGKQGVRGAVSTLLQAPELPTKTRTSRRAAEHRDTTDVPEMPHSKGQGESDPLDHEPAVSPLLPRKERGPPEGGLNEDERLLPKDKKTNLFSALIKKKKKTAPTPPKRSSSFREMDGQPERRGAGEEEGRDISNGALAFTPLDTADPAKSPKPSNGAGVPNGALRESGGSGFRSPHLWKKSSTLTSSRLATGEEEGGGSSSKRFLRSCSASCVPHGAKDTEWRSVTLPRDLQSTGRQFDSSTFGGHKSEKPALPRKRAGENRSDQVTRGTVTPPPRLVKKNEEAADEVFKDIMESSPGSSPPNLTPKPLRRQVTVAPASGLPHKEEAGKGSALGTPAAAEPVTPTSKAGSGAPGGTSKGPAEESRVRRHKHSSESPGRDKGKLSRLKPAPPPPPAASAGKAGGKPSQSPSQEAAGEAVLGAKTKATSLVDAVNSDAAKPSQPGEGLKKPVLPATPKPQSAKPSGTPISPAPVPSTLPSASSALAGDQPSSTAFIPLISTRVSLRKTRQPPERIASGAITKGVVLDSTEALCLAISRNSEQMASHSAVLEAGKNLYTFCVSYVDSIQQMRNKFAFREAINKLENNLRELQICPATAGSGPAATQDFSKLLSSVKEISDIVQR
The target of assay [7] is T1, Mitogen-activated protein kinase kinase kinase kinase 2 (Homo sapiens, UniProt Q12851).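 Also: measured as one member of a kinome-wide kinase panel, with MAP4K2 as the panel entry.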
T1 sequence (Q12851 whole entry): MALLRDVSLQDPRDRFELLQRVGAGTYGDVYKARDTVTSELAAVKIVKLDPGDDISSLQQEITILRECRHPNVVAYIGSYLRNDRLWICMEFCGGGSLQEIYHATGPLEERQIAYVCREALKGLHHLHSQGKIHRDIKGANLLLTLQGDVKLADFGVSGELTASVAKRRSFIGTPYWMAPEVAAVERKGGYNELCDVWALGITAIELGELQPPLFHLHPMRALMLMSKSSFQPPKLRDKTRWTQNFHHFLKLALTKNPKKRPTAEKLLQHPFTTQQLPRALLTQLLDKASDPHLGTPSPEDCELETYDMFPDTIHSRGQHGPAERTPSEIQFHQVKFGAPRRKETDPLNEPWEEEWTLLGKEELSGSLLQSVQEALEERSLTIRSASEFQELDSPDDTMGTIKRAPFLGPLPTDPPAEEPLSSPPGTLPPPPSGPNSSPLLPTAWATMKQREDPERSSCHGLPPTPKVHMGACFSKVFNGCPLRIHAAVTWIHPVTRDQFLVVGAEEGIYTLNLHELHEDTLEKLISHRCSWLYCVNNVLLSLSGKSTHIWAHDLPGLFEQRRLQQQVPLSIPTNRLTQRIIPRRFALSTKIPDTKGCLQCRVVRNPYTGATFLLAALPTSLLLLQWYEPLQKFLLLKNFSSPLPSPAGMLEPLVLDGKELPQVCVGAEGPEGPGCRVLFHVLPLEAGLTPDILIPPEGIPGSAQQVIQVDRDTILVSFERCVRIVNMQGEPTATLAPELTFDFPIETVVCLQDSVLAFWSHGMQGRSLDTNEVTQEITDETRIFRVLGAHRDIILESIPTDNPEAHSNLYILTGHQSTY

Assay [8] has as its target Leucine-rich repeat serine/threonine-protein kinase 2 (Homo sapiens, UniProt Q5S007).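 Also: value from a broad kinome-wide panel profiling study in which LRRK2 was one of the kinases tested.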
Assay [9] addresses Cyclin-dependent kinase 7 (Homo sapiens, UniProt P50613).
For assay [10], the target named is Tyrosine-protein kinase BTK (Homo sapiens, UniProt Q06187).
The target of assay [11] is T2, Tyrosine-protein kinase JAK3 (Homo sapiens, UniProt P52333).
T2 sequence (P52333 whole entry): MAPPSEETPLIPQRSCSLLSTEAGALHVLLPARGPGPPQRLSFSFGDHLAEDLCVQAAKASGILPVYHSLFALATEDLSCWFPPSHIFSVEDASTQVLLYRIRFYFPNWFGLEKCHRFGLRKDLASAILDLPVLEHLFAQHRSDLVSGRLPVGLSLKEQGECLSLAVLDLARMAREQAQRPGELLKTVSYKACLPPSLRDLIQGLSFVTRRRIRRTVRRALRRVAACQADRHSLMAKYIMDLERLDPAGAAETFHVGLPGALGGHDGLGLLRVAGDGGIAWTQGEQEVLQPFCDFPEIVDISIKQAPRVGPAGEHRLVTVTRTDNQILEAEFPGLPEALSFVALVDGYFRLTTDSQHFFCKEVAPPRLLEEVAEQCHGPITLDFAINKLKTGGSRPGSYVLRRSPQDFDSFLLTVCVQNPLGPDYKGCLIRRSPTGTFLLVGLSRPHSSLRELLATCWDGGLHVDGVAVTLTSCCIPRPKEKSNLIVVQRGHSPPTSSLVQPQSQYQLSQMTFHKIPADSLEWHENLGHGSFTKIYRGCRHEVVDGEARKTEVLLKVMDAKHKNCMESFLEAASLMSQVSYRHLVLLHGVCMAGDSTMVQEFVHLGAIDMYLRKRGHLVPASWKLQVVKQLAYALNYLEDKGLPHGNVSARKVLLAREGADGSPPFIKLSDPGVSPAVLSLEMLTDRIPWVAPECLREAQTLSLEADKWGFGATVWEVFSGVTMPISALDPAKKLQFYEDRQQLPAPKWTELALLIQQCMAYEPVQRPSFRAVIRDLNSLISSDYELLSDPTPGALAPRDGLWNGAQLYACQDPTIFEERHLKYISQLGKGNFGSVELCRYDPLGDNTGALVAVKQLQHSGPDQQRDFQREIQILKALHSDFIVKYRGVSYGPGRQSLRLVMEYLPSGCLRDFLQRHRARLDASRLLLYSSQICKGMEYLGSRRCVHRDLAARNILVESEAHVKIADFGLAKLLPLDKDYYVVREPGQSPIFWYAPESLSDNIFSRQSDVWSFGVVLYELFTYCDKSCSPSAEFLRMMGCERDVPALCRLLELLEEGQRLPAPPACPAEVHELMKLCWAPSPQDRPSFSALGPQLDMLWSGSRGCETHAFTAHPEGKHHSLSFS

Assay [12] addresses Tyrosine-protein kinase Lck (Homo sapiens, UniProt P06239).
The target in assay [13] is Hepatocyte growth factor receptor (Homo sapiens, UniProt P08581).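 Also: kinase panel profiling across the kinome, with MET as the panel member.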

Molecules are shown by their SMILES. Active and inactive are the calls of the source.

Chain of Leucine-rich repeat serine/threonine-protein kinase 2 (Q5S007 whole entry): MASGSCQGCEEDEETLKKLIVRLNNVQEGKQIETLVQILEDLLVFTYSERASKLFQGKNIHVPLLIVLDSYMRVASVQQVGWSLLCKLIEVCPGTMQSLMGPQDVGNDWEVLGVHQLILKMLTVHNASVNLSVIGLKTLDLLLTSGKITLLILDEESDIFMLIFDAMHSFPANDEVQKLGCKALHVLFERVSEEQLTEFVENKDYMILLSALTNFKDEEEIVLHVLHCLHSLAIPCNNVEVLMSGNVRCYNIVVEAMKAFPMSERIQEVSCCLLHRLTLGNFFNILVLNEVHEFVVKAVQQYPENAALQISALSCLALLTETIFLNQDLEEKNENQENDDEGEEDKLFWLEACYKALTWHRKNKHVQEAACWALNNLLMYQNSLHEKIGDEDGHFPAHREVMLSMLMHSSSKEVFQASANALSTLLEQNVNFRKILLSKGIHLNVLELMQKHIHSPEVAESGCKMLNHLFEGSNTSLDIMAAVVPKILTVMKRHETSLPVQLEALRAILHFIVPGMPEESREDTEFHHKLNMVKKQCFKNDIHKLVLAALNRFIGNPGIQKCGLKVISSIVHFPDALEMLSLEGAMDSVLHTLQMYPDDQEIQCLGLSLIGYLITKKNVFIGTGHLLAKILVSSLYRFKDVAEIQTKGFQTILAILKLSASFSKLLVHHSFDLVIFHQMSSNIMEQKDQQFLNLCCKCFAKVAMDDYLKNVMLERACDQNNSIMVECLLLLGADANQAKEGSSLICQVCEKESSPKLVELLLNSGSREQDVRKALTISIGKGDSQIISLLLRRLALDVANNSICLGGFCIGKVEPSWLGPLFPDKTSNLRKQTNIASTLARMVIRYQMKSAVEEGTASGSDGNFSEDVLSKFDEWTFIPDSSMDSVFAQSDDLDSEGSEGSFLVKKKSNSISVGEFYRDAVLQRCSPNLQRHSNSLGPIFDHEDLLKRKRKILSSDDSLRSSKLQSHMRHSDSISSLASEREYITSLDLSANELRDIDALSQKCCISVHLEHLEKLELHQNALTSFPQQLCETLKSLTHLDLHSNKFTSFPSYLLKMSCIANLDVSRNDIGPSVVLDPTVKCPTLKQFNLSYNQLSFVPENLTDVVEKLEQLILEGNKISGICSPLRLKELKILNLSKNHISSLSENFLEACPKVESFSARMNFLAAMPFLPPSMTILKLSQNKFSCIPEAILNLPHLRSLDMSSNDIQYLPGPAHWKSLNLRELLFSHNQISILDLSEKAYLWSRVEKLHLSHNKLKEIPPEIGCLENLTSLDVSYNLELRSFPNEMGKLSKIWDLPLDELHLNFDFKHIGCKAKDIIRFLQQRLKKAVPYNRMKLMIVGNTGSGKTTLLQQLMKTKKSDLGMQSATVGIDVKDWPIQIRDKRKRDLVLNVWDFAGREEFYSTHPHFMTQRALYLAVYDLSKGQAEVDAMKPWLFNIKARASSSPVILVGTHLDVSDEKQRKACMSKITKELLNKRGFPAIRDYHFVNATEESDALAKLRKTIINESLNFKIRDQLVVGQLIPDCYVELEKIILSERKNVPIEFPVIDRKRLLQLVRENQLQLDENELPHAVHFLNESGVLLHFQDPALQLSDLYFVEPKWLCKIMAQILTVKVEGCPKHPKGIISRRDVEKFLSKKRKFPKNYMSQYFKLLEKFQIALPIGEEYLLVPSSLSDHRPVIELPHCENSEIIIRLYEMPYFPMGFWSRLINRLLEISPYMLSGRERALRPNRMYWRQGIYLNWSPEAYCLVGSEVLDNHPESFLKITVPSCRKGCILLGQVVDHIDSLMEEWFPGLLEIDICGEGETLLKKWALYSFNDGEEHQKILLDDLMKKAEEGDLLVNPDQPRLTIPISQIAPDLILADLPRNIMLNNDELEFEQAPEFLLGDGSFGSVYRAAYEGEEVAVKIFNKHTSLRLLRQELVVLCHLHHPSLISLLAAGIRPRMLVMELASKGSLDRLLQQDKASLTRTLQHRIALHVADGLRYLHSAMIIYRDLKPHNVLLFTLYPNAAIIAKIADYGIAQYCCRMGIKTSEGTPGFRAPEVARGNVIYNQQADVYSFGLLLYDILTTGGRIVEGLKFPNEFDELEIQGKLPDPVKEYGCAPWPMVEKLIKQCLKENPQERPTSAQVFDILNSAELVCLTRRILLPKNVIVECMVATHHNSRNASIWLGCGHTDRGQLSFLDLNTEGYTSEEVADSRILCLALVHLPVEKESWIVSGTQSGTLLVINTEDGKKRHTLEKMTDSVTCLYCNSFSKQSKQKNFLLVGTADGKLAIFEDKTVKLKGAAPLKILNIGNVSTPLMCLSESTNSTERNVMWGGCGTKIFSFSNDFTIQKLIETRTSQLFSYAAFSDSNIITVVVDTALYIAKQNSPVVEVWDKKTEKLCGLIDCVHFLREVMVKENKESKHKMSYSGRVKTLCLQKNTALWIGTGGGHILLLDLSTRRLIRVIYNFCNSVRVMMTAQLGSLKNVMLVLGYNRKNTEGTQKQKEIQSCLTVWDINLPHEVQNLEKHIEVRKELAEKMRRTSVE
Chain of Dual specificity mitogen-activated protein kinase kinase 1 (Q02750 whole entry): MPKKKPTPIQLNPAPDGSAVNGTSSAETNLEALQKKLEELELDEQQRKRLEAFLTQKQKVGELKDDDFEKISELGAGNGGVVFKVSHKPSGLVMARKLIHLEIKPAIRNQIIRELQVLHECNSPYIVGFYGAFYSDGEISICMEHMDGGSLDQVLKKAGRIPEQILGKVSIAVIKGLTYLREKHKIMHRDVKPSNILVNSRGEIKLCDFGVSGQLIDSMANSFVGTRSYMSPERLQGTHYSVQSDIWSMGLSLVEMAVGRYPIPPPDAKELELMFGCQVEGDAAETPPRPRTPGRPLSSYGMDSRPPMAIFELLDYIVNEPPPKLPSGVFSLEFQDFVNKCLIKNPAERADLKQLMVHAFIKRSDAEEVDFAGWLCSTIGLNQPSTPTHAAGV
Chain of Tyrosine-protein kinase Lck (P06239 whole entry): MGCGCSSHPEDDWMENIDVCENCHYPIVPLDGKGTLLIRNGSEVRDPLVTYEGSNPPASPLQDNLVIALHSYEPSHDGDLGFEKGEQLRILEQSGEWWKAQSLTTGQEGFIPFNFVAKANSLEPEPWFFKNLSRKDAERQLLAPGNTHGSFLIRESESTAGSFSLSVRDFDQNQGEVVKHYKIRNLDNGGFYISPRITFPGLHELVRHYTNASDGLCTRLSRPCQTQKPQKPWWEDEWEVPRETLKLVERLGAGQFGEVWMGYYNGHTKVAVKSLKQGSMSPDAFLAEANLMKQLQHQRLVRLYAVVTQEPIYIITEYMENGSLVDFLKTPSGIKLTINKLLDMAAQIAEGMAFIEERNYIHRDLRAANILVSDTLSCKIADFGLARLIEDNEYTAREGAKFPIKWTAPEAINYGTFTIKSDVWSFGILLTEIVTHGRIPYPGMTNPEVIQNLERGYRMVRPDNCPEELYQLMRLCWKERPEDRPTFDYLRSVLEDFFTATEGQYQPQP
Chain of Aurora kinase B (Q96GD4 whole entry): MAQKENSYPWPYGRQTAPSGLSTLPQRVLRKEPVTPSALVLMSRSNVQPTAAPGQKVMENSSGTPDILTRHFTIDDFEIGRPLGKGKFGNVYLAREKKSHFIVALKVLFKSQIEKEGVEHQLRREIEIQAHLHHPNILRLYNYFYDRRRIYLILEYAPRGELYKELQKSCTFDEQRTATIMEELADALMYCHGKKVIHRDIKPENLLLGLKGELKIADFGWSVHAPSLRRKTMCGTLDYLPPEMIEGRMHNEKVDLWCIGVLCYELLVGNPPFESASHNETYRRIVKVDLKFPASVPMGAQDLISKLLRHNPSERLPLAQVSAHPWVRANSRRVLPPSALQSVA

The Ki is the dissociation constant of the complex between target and ligand, obtained from inhibition or displacement. On to `O=c1[nH]c2cc(Br)cnc2[nH]1`, for which the Ki on Aurora kinase B was 5.01 µM (active); in assay [1] it was 1.26 µM (active); in assay [2], 50.1 µM (active); in assay [3], 50.1 µM (active); in assay [4], > 50.1 µM (inactive); in assay [5], 79.4 µM (active). The Ki in assay [6] is 15.8 µM (active); in assay [7] it was 12.6 µM (active); in assay [8], 3.98 µM (active); in assay [9], 12.6 µM (active).
For `O=C(Nc1cccc(C(F)(F)F)n1)Nc1ccnc2cc(OC(F)F)ccc12`, the Ki at Aurora kinase B is > 3.98 µM (inactive); in assay [2], > 3.98 µM (inactive); in [3] it was > 3.16 µM (inactive); in [5] it was > 2.51 µM (inactive); in assay [10], > 6.31 µM (inactive); in [6] it was > 3.16 µM (inactive). Besides, the Ki in assay [7] is > 2.51 µM (inactive); in assay [11], > 5.01 µM (inactive); in assay [12], > 6.31 µM (inactive); in assay [8], > 2.51 µM (inactive); in assay [13], > 2.51 µM (inactive); in assay [9], > 3.98 µM (inactive).
In the case of `O=C(Nc1cccc(C(F)(F)F)n1)Nc1ccnc2cc(Cl)ccc12`, the Ki at Aurora kinase B is > 3.98 µM (inactive); in assay [1] it was 1.26 µM (active); in assay [2], > 3.98 µM (inactive); in assay [3] it was 3.16 µM (active); in assay [4] it was > 1.26 µM (inactive); in [5], 2.51 µM (active). The Ki in assay [10] was > 6.31 µM (inactive); in assay [6], 3.98 µM (active); in assay [7], > 2.51 µM (inactive); in [11], 3.98 µM (active); in assay [12] it was > 6.31 µM (inactive); in [8], > 2.51 µM (inactive). Besides, the Ki was > 2.51 µM (inactive) in assay [13] and > 3.98 µM (inactive) in [9].
On to `CCC1CC(NS(=O)(=O)C2CC2)CC1c1ncc2cnc3[nH]ccc3n12` (stereo not drawn), for which the Ki was > 1.58 µM (inactive) in assay [1]; 0.0316 µM (active) in assay [2]; > 3.16 µM (inactive) in [3]; 0.2 µM (active) in assay [4]; 0.000126 µM (active) in [5]; > 6.31 µM (inactive) in assay [10]. Moreover, the Ki in [7] is > 2.51 µM (inactive); in assay [11] it was 0.00398 µM (active); in assay [12] it was 3.98 µM (active); in [8], 0.1 µM (active); in assay [13], > 2.51 µM (inactive); in [9] it was > 3.98 µM (inactive).
